Source: the supplement of paper PMC10627819

Legend:
[1] = tested on: B. subtilis 168; assay: Bliss interaction score (quartile over a dose matrix) (fitness difference); higher = more antagonism (negative = synergy)
How it was run: (§1)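 Quartiles summarise the Bliss score over technical, biological and donor/recipient replicates, where the score is observed minus expected fitness under a product model. Expected fitness uses single-drug values inferred from combination data. Fitness is OD595 at entry into stationary phase over the plate's robust no-drug mean, capped at 1.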

[2] = tested on: S. aureus Newman; assay: as above
How it was run: as §1

[3] = tested on: S. aureus DSM 20231; assay: as above
How it was run: as §1

[4] = tested on: S. pneumoniae D39V; assay: as above
How it was run: as §1

[5] = tested on: B. subtilis 168; assay: fitness (endpoint OD595 vs no drug) (fraction); higher = more growth; conditions: main component drawn
How it was run: (§2)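 Growth medium was TSB, LB Lennox or CY, and plates were kept at 37 °C. Inoculation was at OD595 0.01 in 384-well plates, at 30 µl per well or 55 µl for S. pneumoniae. OD595 was monitored every 30 min for 14 h and background-subtracted using the first reading. Fitness is the optical density on entering stationary phase divided by the robust mean of no-drug controls, with values capped at 1.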

[6] = tested on: S. pneumoniae D39V; assay: as above
How it was run: as §2
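Throughout, for Bliss interaction score (quartile over a dose matrix): first quartile when negative (synergy) and third quartile when positive (antagonism).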

CC(=O)NC[C@H]1CN(c2ccc(N3CCOCC3)c(F)c2)C(=O)O1 [Linezolid] + CCC(C)C1C(=O)NC(=C)C(=O)NC(C(=O)NC(CSCC(C(=O)N1)NC(=O)/C(=C/C)/NC(=O)C(C(C)CC)N)C(=O)NC2C(SCC(NC(=O)CNC(=O)C3CCCN3C2=O)C(=O)NC(CCCCN)C(=O)NC4C(SCC(NC(=O)CNC(=O)C(NC(=O)C(NC(=O)C(NC(=O)CNC4=O)C)CC(C)C)CCSC)C(=O)NC(CC(=O)N)C(=O)NC(CCSC)C(=O)NC(CCCCN)C(=O)NC5C(SCC6C(=O)NC(C(=O)NC(CSC(C(C(=O)N6)NC(=O)C(NC5=O)C)C)C(=O)NC(CO)C(=O)NC(C(C)CC)C(=O)NC(CC7=CN=CN7)C(=O)NC(C(C)C)C(=O)NC(=C)C(=O)NC(CCCCN)C(=O)O)CC8=CN=CN8)C)C)C)CC(C)C [Nisin]
main component drawn
Conditions | Bliss interaction score
[1] | -0.0535
[2] | -0.0621
[3] | -0.0557
[4] | -0.0674

Conditions | fitness
[5], first compound 0.0625 µg/mL, partner 0.5 µg/mL, one replicate | 0.875
[5], first compound 0.0625 µg/mL, partner 1 µg/mL, one replicate | 0.743
[5], first compound 0.0625 µg/mL, partner 2 µg/mL, one replicate | 0.547
[5], first compound 0.125 µg/mL, partner 1.25 µg/mL, one replicate | 0.734
[5], first compound 0.125 µg/mL, partner 1.6 µg/mL, one replicate | 0.411
[5], first compound 0.125 µg/mL, partner 2.5 µg/mL, one replicate | 0.187
[5], first compound 0.125 µg/mL, partner 3.2 µg/mL, one replicate | 0.0219
[5], first compound 0.125 µg/mL, partner 4 µg/mL, one replicate | 0.038
[5], first compound 0.125 µg/mL, partner 5 µg/mL, one replicate | 0.0523
[5], first compound 0.125 µg/mL, partner 6.4 µg/mL, one replicate | 0.0537
[5], first compound 0.125 µg/mL, partner 8 µg/mL, one replicate | 0.0224
[5], first compound 0.125 µg/mL, partner 16 µg/mL, one replicate | 0.0095
[5], first compound 0.25 µg/mL, partner 1.25 µg/mL, one replicate | 0.502
[5], first compound 0.25 µg/mL, partner 1.6 µg/mL, one replicate | 0.0282
[5], first compound 0.25 µg/mL, partner 2.5 µg/mL, one replicate | 0.118
[5], first compound 0.25 µg/mL, partner 3.2 µg/mL, one replicate | 0.0214
[5], first compound 0.25 µg/mL, partner 4 µg/mL, one replicate | 0.0369
[5], first compound 0.25 µg/mL, partner 5 µg/mL, one replicate | 0.0422
[5], first compound 0.25 µg/mL, partner 6.4 µg/mL, one replicate | 0.0573
[5], first compound 0.25 µg/mL, partner 8 µg/mL, one replicate | 0.0244
[5], first compound 0.25 µg/mL, partner 16 µg/mL, one replicate | 0.0006
[5], first compound 0.5 µg/mL, partner 0.5 µg/mL, one replicate | 0.0342
[5], first compound 0.5 µg/mL, partner 1 µg/mL, one replicate | 0.0597
[5], first compound 0.5 µg/mL, partner 1.25 µg/mL, one replicate | 0.074
[5], first compound 0.5 µg/mL, partner 1.6 µg/mL, one replicate | 0.027
[5], first compound 0.5 µg/mL, partner 2 µg/mL, one replicate | 0.0406
[5], first compound 0.5 µg/mL, partner 2.5 µg/mL, one replicate | 0.0568
[5], first compound 0.5 µg/mL, partner 3.2 µg/mL, one replicate | 0.042
[5], first compound 0.5 µg/mL, partner 4 µg/mL, one replicate | 0.023
[5], first compound 0.5 µg/mL, partner 5 µg/mL, one replicate | 0.0652
[5], first compound 0.5 µg/mL, partner 6.4 µg/mL, one replicate | 0.0278
[5], first compound 0.5 µg/mL, partner 8 µg/mL, one replicate | 0.019
[5], first compound 0.5 µg/mL, partner 16 µg/mL, one replicate | 0.0145
[6], first compound 0.105 µg/mL, partner 1.6 µg/mL, main component drawn | 0.0032
[6], first compound 0.105 µg/mL, partner 3.2 µg/mL, main component drawn | 0.0264
[6], first compound 0.105 µg/mL, partner 6.4 µg/mL, main component drawn | 0.015
[6], first compound 0.2 µg/mL, partner 0.4275 µg/mL, main component drawn | 0.804
[6], first compound 0.2 µg/mL, partner 0.855 µg/mL, main component drawn | 0.657
[6], first compound 0.2 µg/mL, partner 1.71 µg/mL, main component drawn | 0.0574
[6], first compound 0.21 µg/mL, partner 1.6 µg/mL, main component drawn | 0
[6], first compound 0.21 µg/mL, partner 3.2 µg/mL, main component drawn | 0.0008
[6], first compound 0.21 µg/mL, partner 6.4 µg/mL, main component drawn | 0
[6], first compound 0.4 µg/mL, partner 0.4275 µg/mL, main component drawn | 0.63
[6], first compound 0.4 µg/mL, partner 0.855 µg/mL, main component drawn | 0.314
[6], first compound 0.4 µg/mL, partner 1.71 µg/mL, main component drawn | 0.0313
[6], first compound 0.42 µg/mL, partner 1.6 µg/mL, main component drawn | 0.0074
[6], first compound 0.42 µg/mL, partner 3.2 µg/mL, main component drawn | 0.0019
[6], first compound 0.42 µg/mL, partner 6.4 µg/mL, main component drawn | 0.0156
[6], first compound 0.8 µg/mL, partner 0.4275 µg/mL, main component drawn | 0.132
[6], first compound 0.8 µg/mL, partner 0.855 µg/mL, main component drawn | 0.0545
[6], first compound 0.8 µg/mL, partner 1.71 µg/mL, main component drawn | 0.0571

fitness, [5]
Conditions | partner 0.5 µg/mL | partner 1 µg/mL | partner 2 µg/mL
first compound 0.125 µg/mL | 0.503 | 0.421 | 0.111
first compound 0.25 µg/mL | 0.167 | 0.0862 | 0.0407

CO[C@H]1/C=C/O[C@@]2(C)Oc3c(C)c(O)c4c(O)c(c(/C=N/N5CCN(C)CC5)c(O)c4c3C2=O)NC(=O)/C(C)=C\C=C\[C@H](C)[C@H](O)[C@@H](C)[C@@H](O)[C@@H](C)[C@H](OC(C)=O)[C@@H]1C [Rifampicin] + CN[C@@H]1[C@H](O[C@H]2[C@H](O[C@H]3[C@H](O)[C@@H](O)[C@H](N=C(N)N)[C@@H](O)[C@@H]3N=C(N)N)O[C@@H](C)[C@]2(O)C=O)O[C@@H](CO)[C@H](O)[C@H]1O [Streptomycin]
Conditions | Bliss interaction score
[1] | 0.184
[2] | -0.0179
[3] | -0.0315
[4] | -0.121

[6], one replicate
Conditions | fitness
first compound 0.025 µg/mL, partner 2 µg/mL | 0.804
first compound 0.025 µg/mL, partner 4 µg/mL | 0.823
first compound 0.025 µg/mL, partner 8 µg/mL | 0.725
first compound 0.05 µg/mL, partner 16 µg/mL | 0.272
first compound 0.1 µg/mL, partner 16 µg/mL | 0.215
first compound 0.2 µg/mL, partner 16 µg/mL | 0.137

fitness, [6]
Conditions | partner 2 µg/mL | partner 4 µg/mL | partner 8 µg/mL
first compound 0.1 µg/mL | – | 0.292 | 0.304
first compound 0.2 µg/mL | 0.0493 | 0.0964 | 0.185

CO[C@H]1/C=C/O[C@@]2(C)Oc3c(C)c(O)c4c(O)c(c(/C=N/N5CCN(C)CC5)c(O)c4c3C2=O)NC(=O)/C(C)=C\C=C\[C@H](C)[C@H](O)[C@@H](C)[C@@H](O)[C@@H](C)[C@H](OC(C)=O)[C@@H]1C [Rifampicin] + CC1=C\[C@@H](O)CC(=O)Cc2nc(co2)C(=O)N2CCC=C2C(=O)O[C@H](C(C)C)[C@H](C)/C=C/C(=O)NC\C=C\1 [Virginiamycin M1]
Conditions | Bliss interaction score
[1] | -0.0938
[2] | -0.0218
[3] | 0.0924
[4] | 0.111

[6], one replicate
Conditions | fitness
first compound 0.025 µg/mL, partner 0.5 µg/mL | 0.876
first compound 0.025 µg/mL, partner 1 µg/mL | 0.905
first compound 0.025 µg/mL, partner 2 µg/mL | 0.822
first compound 0.05 µg/mL, partner 0.15 µg/mL | ≥ 1
first compound 0.05 µg/mL, partner 0.3 µg/mL | 0.993
first compound 0.1 µg/mL, partner 0.15 µg/mL | 0.891
first compound 0.1 µg/mL, partner 0.3 µg/mL | 0.884
first compound 0.2 µg/mL, partner 0.15 µg/mL | 0.267
first compound 0.2 µg/mL, partner 0.3 µg/mL | 0.203

[6], first compound 0.2 µg/mL
Conditions | fitness
partner 0.5 µg/mL | 0.194
partner 1 µg/mL | 0.0581
partner 2 µg/mL | 0.129
